Experimental findings from ChEMBL document CHEMBL1201862, “PubChem BioAssay data set” (2004) are described below.

Active and inactive are the calls of the source.

In experiment [1] the target is Intestinal-type alkaline phosphatase (Homo sapiens, UniProt P09923). Briefly: activation of human intestinal alkaline phosphatase – biochemical, dose response (AID 488873). The experiment is classed as functional.
The target of experiment [2] is Intestinal-type alkaline phosphatase (Mus musculus, UniProt P24822). Briefly: PubChem AID 488785. The experiment is classed as functional.
Intestinal-type alkaline phosphatase (Mus musculus, UniProt P24822), sequence (P24822 whole entry): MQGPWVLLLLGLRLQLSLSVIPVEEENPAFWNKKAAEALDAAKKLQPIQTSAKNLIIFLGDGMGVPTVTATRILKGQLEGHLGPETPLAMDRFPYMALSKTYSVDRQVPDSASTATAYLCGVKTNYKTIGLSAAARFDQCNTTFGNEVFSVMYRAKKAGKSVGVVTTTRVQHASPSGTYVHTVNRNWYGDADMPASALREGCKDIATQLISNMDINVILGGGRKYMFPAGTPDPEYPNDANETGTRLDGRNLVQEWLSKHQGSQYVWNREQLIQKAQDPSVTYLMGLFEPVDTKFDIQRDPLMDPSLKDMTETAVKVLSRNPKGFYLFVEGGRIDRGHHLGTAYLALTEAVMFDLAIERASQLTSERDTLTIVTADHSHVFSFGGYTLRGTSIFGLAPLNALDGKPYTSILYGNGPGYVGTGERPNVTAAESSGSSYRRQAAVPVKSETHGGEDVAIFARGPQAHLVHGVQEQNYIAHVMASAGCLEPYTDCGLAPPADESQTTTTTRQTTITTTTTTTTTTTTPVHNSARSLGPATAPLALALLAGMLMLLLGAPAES
The target of experiment [3] is T1, Alkaline phosphatase, tissue-nonspecific isozyme (Homo sapiens, UniProt P05186).
T1 sequence (P05186 whole entry): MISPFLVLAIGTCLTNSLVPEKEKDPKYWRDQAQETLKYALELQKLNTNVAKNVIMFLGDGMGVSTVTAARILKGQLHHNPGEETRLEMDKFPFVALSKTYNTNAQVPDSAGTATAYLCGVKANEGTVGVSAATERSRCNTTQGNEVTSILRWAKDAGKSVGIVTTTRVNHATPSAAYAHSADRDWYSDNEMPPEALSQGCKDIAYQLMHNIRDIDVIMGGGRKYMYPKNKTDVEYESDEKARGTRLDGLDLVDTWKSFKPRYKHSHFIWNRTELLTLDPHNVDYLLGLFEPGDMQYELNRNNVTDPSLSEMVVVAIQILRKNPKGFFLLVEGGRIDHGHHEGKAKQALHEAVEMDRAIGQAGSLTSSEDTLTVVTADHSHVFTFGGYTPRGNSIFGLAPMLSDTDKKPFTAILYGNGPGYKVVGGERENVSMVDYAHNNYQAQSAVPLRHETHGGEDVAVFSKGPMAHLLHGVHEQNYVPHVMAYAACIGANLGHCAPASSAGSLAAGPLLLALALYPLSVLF
In words: TNAP enzyme inhibition by screening hits, dose response, selectivity assay for mouse IAP inhibitor project, biochemical, human TNAP, uHTS hits (AID 488906). The experiment is classed as functional.

Experiment [4] addresses T2, Mannose-6-phosphate isomerase (Homo sapiens, UniProt P34949).
T2 sequence (P34949 whole entry): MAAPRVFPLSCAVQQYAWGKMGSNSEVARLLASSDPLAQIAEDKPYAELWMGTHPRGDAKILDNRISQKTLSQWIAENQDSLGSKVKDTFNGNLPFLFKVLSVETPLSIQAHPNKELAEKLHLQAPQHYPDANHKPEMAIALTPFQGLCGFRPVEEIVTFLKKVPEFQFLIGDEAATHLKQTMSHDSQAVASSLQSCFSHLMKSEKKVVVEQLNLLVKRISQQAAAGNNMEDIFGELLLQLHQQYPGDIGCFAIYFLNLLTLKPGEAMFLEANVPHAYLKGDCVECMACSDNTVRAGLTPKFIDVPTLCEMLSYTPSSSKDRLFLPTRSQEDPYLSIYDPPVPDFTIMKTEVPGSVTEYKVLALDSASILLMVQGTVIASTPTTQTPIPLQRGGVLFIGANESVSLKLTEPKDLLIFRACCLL
Briefly: PMI enzyme inhibitors, confirmation, biochemical, fluorescence intensity (AID 1535).

Experiment [5] has as its target DNA dC->dU-editing enzyme APOBEC-3A (Homo sapiens, UniProt P31941). In words: APOBEC3A DNA deaminase inhibitors, dose response, biochemical (AID 504722). The experiment is classed as functional.
The next experiment deals with T3, Phosphomannomutase 2 (Homo sapiens, UniProt O15305).
T3 sequence (O15305 whole entry): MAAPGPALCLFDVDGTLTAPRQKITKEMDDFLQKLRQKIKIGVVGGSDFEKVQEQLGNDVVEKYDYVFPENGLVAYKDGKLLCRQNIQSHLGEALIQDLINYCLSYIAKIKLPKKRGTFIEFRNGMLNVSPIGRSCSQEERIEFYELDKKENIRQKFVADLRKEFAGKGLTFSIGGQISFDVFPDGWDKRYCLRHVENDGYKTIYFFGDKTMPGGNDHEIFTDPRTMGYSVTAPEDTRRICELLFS
Briefly: Counter screen SAR assay for PMM2 inhibitors via a fluorescence intensity assay. [Related pubchem assays (depositor defined):AID1545, AID1574]. (Counterscreens check selectivity or assay interference.)

For experiment [6], the target named is Phosphoethanolamine/phosphocholine phosphatase (Homo sapiens, UniProt Q8TCT1). Briefly: SAR assay for compounds that inhibit PHOSPHO1. [Related pubchem assays (depositor defined):AID1545, AID1565, AID1574].
Phosphoethanolamine/phosphocholine phosphatase, sequence (Q8TCT1 whole entry): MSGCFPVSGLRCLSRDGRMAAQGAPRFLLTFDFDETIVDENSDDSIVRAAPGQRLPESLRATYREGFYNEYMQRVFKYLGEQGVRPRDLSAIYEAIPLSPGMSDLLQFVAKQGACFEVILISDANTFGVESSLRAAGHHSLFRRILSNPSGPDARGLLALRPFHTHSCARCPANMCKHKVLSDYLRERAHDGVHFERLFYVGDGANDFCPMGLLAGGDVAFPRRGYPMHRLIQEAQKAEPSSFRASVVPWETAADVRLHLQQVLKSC
For experiment [7], the target named is DNA dC->dU-editing enzyme APOBEC-3G (Homo sapiens, UniProt Q9HC16). Briefly: Dose Response confirmation of small molecule APOBEC3G DNA Deaminase Inhibitors via a fluorescence-based single-stranded DNA deaminase assay. [Related pubchem assays (depositor defined):AID493012, AID493028]. The format is functional.
DNA dC->dU-editing enzyme APOBEC-3G, sequence (Q9HC16 whole entry): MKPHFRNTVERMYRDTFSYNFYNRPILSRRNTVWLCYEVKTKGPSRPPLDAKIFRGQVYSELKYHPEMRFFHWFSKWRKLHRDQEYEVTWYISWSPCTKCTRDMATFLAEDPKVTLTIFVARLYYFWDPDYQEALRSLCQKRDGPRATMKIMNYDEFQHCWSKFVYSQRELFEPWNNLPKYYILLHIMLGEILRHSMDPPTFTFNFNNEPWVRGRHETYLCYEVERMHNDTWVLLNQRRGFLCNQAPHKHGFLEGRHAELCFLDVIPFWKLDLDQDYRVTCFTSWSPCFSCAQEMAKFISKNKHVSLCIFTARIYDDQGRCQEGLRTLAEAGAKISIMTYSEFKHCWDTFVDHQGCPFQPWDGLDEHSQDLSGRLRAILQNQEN
For experiment [8], the target named is T1, Alkaline phosphatase, tissue-nonspecific isozyme. In words: human TNAP enzyme inhibitors, SAR follow-up, biochemical, luminescent, dose response (AID 1056).
The target in experiment [9] is T4, Polyadenylate-binding protein 1 (Homo sapiens, UniProt P11940). In words: PABP1 MLLE–PAM2 interaction inhibitors, dose response, miRNA deadenylation inhibitor project, biochemical, fluorescence polarization, Cy5-PAM2 peptide, secondary (AID 602260). The format is functional. The conditions noted are these: read-out: IC50_Mean.
T4 sequence (P11940 whole entry): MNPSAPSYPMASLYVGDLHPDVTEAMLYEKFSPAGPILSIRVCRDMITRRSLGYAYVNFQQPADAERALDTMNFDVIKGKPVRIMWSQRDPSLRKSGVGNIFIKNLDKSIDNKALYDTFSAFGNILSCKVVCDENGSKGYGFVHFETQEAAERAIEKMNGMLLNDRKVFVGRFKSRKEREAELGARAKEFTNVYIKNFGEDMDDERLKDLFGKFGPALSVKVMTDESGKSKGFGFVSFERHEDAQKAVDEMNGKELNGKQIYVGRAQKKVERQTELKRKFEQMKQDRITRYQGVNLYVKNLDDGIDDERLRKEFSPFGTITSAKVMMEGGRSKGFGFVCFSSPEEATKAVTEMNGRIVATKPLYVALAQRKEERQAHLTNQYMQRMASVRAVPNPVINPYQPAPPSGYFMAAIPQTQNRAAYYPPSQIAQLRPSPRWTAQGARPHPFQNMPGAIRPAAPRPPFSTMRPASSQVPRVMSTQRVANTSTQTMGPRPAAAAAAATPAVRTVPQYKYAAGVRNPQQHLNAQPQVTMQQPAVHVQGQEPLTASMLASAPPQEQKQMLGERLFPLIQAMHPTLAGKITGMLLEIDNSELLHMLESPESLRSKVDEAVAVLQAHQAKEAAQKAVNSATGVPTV
Experiment [10] concerns the target Mitochondrial peptide methionine sulfoxide reductase (Bos taurus, UniProt P54149). In words: Absorbance-based biochemical high throughput dose response assay for activators of Methionine sulfoxide reductase A (MsrA). The format is functional.
Experiment [11] deals with T4, Polyadenylate-binding protein 1. Briefly: PABP1 MLLE–PAM2 binding inhibitor potency, dose response, biochemical, fluorescence polarization, FITC-PAM2 peptide (AID 602259). The experiment is classed as functional. The conditions noted are these: read-out: IC50_Mean. (Fluorescence polarisation rises when a labelled molecule tumbles more slowly, as on binding a larger partner.)

The nature of experiment [12]: Fluorescence-based cell-based high throughput dose response assay for inhibitors of the interaction of nucleotide-binding oligomerization domain containing 2 (NOD2) and the receptor-interacting serine-threonine kinase 2 (RIPK2). The conditions noted are these: Homo sapiens. The experiment is classed as functional.
Another experiment concerns the target Beta Lactamase (Pseudomonas aeruginosa, UniProt Q932Y6). Briefly: beta-lactamase reporter inhibitor potency, dose response, artefact control for NOD2-RIPK2 interaction inhibitor project, BLA reporter cells, FRET fluorescence (AID 651552). The format is functional, cell-based.
The nature of experiment [13]: HeLa cell cytotoxicity, dose response, cytotoxicity control for MgcRacGAP inhibitor project (AID 624300). The experiment is classed as functional.
Experiment [14] deals with T5, Rac GTPase-activating protein 1 (Homo sapiens, UniProt Q9H0H5).
T5 sequence (Q9H0H5 whole entry): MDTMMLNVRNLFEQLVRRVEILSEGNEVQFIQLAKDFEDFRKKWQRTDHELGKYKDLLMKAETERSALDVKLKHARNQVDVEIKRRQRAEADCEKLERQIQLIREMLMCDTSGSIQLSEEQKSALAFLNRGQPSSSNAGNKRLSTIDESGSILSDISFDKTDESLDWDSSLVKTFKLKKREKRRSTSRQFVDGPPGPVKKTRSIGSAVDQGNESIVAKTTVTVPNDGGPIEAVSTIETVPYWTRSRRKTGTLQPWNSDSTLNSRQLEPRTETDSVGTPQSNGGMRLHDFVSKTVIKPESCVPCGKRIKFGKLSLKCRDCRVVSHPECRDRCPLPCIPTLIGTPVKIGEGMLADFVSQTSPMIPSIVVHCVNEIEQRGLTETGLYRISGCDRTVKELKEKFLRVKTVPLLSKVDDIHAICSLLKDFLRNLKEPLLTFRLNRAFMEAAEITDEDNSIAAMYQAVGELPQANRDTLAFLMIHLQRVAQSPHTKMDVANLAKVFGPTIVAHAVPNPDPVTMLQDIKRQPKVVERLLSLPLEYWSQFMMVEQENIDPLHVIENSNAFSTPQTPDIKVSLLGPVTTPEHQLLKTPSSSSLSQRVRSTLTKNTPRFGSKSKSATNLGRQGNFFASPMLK
Briefly: MgcRacGAP GTPase-activating activity inhibitors, confirmation, biochemical, ADP Hunter fluorescence, primary and confirmatory (AID 624330). The experiment is classed as functional.

The target of experiment [15] is T6, Short transient receptor potential channel 4 (Mus musculus, UniProt Q9QUQ5).
T6 sequence (Q9QUQ5 whole entry): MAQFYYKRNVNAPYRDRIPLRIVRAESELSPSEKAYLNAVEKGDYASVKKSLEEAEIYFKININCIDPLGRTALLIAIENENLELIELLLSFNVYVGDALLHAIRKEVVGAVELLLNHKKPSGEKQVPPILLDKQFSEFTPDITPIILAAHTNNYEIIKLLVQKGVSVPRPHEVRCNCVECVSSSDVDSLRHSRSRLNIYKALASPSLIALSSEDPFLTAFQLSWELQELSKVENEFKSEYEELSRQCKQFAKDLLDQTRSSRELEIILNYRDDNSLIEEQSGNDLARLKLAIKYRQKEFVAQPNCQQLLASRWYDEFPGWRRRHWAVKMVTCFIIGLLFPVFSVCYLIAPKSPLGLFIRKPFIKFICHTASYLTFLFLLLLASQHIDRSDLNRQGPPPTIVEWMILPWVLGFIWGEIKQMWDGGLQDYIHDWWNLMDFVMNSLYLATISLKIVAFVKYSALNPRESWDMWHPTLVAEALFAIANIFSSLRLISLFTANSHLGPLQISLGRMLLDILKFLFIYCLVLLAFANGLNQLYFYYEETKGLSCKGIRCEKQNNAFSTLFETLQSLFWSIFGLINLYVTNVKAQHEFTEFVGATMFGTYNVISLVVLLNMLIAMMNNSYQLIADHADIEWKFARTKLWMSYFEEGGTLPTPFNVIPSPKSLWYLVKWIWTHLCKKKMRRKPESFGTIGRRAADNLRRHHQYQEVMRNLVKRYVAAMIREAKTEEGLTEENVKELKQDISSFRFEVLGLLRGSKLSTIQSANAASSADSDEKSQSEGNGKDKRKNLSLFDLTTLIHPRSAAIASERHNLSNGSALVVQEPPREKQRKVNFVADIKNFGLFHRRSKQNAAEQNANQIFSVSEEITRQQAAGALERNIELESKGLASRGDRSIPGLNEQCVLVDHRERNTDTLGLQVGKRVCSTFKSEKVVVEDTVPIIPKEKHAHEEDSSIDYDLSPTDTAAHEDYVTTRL
In words: TRPC4 positive allosteric modulators, dose response, cell-based, HEK293 TRPC4/mu-opioid, Fluo-4 calcium, EC20 DAMGO (AID 434941).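 Also: HEK293 cells coexpressing TRPC4 and mu opioid receptor stimulated by EC20 DAMGO.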 The format is functional.

Experiment [16] has as its target Eukaryotic translation initiation factor 4H (Homo sapiens, UniProt Q15056). In words: eIF4H inhibition in translation initiation, SAR follow-up (AID 435011). The experiment is classed as functional.
Experiment [17] deals with T4, Polyadenylate-binding protein 1. Briefly: PABP inhibition in translation initiation, SAR follow-up (AID 435018). The experiment is classed as functional.
In experiment [18] the target is T7, Carboxy-terminal domain RNA polymerase II polypeptide A small phosphatase 1 (Homo sapiens, UniProt Q9GZU7).
T7 sequence (Q9GZU7 whole entry): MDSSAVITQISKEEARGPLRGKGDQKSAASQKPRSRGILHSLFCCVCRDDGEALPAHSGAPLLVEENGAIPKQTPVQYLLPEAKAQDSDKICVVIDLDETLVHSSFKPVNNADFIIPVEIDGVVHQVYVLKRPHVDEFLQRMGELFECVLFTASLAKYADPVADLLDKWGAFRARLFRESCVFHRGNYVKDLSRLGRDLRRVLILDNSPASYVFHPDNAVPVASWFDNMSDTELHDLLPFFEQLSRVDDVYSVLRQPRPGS
In words: inhibitors of CTDSP1, concentration-response testing, biochemical assay, absorbance-based, actives from ultra-high-throughput screening (AID 540297). The format is functional.

For experiment [19], the target named is T8, Long-chain-fatty-acid--AMP ligase FadD28 (Mycobacterium tuberculosis, UniProt P9WQ59).
T8 sequence (P9WQ59 whole entry): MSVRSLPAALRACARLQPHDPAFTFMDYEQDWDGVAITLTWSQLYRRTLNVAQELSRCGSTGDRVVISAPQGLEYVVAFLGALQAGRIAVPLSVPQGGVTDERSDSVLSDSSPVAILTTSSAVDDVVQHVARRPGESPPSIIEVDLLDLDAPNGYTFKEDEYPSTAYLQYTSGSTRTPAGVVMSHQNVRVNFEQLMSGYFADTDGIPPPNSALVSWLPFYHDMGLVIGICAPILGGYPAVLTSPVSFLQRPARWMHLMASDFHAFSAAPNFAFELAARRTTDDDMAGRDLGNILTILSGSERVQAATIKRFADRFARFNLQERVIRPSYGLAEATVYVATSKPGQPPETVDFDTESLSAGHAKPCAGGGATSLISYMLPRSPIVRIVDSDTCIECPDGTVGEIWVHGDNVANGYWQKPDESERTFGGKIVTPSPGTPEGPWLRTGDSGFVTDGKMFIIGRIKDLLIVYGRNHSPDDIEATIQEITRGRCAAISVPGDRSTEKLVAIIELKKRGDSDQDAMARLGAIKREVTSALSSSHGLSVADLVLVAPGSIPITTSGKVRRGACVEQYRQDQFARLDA
Briefly: Fluorescence polarization aasay to screen for inhibitors that compete for the binding of FadD28 to a bisubstrate Measured in Biochemical System Using Plate Reader - 2147-01_Inhibitor_Dose_CherryPick_Activity. The format is functional, Mycobacterium tuberculosis H37Rv.

Mitochondrial peptide methionine sulfoxide reductase, sequence (P54149 whole entry): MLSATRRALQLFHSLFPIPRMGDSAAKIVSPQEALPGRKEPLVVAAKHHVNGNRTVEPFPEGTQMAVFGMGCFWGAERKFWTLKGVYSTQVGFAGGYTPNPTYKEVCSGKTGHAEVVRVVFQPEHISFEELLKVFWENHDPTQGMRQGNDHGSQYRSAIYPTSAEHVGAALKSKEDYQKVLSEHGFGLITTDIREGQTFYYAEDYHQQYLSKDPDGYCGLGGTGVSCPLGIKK
Beta Lactamase, sequence (Q932Y6 whole entry): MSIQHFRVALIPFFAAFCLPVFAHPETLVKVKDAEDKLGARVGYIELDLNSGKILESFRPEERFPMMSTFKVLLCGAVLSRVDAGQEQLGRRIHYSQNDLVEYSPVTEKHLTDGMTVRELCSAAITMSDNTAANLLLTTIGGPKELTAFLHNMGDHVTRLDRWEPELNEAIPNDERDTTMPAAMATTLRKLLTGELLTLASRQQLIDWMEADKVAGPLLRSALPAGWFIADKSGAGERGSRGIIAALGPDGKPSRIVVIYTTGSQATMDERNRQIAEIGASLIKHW
DNA dC->dU-editing enzyme APOBEC-3A, sequence (P31941 whole entry): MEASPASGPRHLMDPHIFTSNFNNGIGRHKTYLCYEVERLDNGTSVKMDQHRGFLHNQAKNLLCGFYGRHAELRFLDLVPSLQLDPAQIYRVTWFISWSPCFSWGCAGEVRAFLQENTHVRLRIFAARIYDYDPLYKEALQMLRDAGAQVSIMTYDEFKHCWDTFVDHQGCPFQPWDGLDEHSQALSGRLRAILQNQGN
Intestinal-type alkaline phosphatase (Homo sapiens, UniProt P09923), sequence (P09923 whole entry): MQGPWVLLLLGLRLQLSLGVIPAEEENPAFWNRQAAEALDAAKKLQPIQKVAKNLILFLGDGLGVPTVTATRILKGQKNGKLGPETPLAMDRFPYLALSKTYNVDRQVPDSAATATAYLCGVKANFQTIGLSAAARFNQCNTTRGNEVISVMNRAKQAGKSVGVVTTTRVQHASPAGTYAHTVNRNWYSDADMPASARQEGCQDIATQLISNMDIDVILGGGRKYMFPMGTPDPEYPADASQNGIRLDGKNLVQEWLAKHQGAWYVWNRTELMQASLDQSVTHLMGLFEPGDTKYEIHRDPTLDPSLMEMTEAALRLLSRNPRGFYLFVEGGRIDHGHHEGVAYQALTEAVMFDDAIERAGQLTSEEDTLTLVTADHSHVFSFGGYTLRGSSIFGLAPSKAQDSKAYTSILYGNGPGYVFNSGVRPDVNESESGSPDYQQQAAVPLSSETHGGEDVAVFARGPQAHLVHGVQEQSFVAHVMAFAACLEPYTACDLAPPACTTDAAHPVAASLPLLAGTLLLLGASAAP

For `CC1(C(=O)NNC(=O)c2ccc(=O)oc2)CC1Br` (stereo unspecified), in [1], the EC50 (in general, the concentration giving half of the maximal effect) was > 100 µM (inactive). Also, the IC50 was 11 µM (active) in experiment [2] and > 100 µM (inactive) in experiment [3].

For `O=c1c2ccccc2sn1-c1ccc(F)cc1`, the IC50 in experiment [4] is 1.49 µM (active); in experiment [5], > 100 µM (inactive); at Phosphomannomutase 2, 18.1 µM (active); in [6] it was 4.85 µM (inactive); in experiment [7] it was 12.4 µM (active); in [8], > 100 µM (inactive). Also, the IC50 was > 66 µM (inactive) in experiment [9]; > 66 µM (inactive) in experiment [11]; 5.1 µM (active) in experiment [12]; 29.5 µM (inactive) on Beta Lactamase; 39.3 µM (active) in [14]. For the same compound, the EC50 in [10] was 98.5 µM (inactive). Also, the CC50 – broadly, the concentration at which the toxic effect on the cells reaches its halfway point – in experiment [13] is 77.3 µM (active).

For `CC1=C(C(=O)NCc2ccccc2)C(c2cc(Br)cc(Br)c2OC(C)C)NC(=O)N1` (stereo unspecified), in [15], the concentration giving a half-maximal response (EC50) is 4.22 µM (active).

Consider `Cc1cccc(NC(=O)CN2C(=O)N/C(=C\c3ccccc3OCc3ccc(C(=O)O)cc3)C2=O)c1`, for which the results for the IC50 in experiment [16], in experiment [17] and in experiment [18] were 17.5 µM (active), 77.6 µM (active) and 6.07 µM (active), respectively. Further, the AC50 (commonly the midpoint of the concentration-response curve, whichever way the signal moves) in experiment [19] was 9.77 µM (active).
